This note sets out measurements from the METLIN SMRT retention time set (Domingo-Almenara et al. 2019).

Molecules are shown by their SMILES.

A short description of this series: gradient 5% acetonitrile 3 min, to 50% in 2 min, to 85% in 15 min, held 3 min, 100 µL/min. The settings on record: column: Zorbax Extend-C18 2.1 x 50 mm; eluents: water / acetonitrile, 0.1% formic acid. In a few lines: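 Over 3 months, pure standards in mixtures of ~100 molecules were run by HPLC coupled to a quadrupole time-of-flight mass spectrometer in positive and negative ionization mode. The column was a Zorbax Extend-C18 (2.1 × 50 mm, 1.8 μm) at 100 μL/min, eluted with water and acetonitrile each holding 0.1% formic acid, with 40 μL dead and 900 μL dwell volumes. Retention time was determined from adduct peaks chosen by software and checked manually.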
Compound `CN(C)CCNC(=O)c1cc(-c2ccccc2)nc2ccccc12` yielded an RP-LC retention time of 620 s. Under `CC1Oc2ccc(-c3csc(NC(=O)c4cccc(F)c4)n3)cc2N(C)C1=O` (stereo not drawn) stands 943 s; under `COc1cccc(C2CC(c3ccc(Cl)cc3)=NC3(CCN(C(C)=O)CC3)N2)c1O` (stereo not drawn), 686 s; under `CC(C)CNC(=O)C1CCN(c2cnn(Cc3ccccc3)c(=O)c2)CC1`, 745 s. Turning to `CCc1cc(=O)n(CC(=O)NCCC2=CCCCC2)c(N)n1`, the RP-LC retention time turned out to be 642 s. Under `Cc1cccc(OCC(=O)N2CCN(c3cc(=O)n(C(C)C)c(=O)n3C(C)C)CC2)c1` stands 909 s; under `COCc1noc(CC2CCOC3(CCN(C(=O)NC4CCCCC4)CC3)C2)n1` (stereo not drawn), 758 s. Under `COc1cccc(OC)c1C(=O)Nc1ccc2c(c1)CCCN2C(=O)C1CC1` stands 722 s; under `Nc1ccccc1-n1nc2ccc3ccccc3c2n1`, 1220 s; under `CCOc1ccc(NS(=O)(=O)c2cc(-c3cc(C(F)(F)F)on3)sc2C)cc1`, 1120 s. Compound `COc1ccc(CN2CC(F)(F)C[C@H]2c2nnc(-c3cnccn3)o2)cc1C` had an RP-LC retention time of 912 s. Under `Cn1ccnc1N1CCN(C(=O)CSCc2ccccc2)CC1` stands 571 s. Under `CCc1ccc(Nc2nc(C(=O)NCCN3CCCC3)nc3ccccc23)cc1` stands 632 s; under `O=C(Cn1c(=O)c(CCC(=O)NC2CCCC2)nc2ccccc21)Nc1ccc(Cl)cc1F`, 885 s; under `Cc1ccc(-n2nc(N3CCCN(S(=O)(=O)c4ccccc4F)CC3)ccc2=O)cc1`, 860 s.

In the case of `Cc1ccc(N2C=C(C(=O)N3CCCC3)S(=O)(=O)c3ccccc32)cc1F`, the RP-LC retention time turned out to be 813 s. Under `CN1C(=O)c2cc(C(=O)N3CCN(c4ccccc4)CC3)nn2CC1(C)C(=O)NC1CCCCC1` (stereo not drawn) stands 803 s; under `O=C(Nc1ccccc1)N1CCCC(Cn2c(C3CC3)nc3cccnc32)C1` (stereo not drawn), 655 s; under `CCN(C(=O)Cc1c(C(=O)O)c(C)cn1CC)c1cc(C)ccc1C`, 892 s.

For the compound `Cc1nc(CCNC(=O)C(C)(C)C)no1`, the RP-LC retention time came out at 619 s. Under `Cc1ccc(C)c(S(=O)(=O)N2CCCCCC2c2nnc(C)o2)c1` (stereo not drawn) stands 908 s. Under `Cc1nnc(NC(=O)Cn2cnc(-c3cccs3)cc2=O)s1` stands 630 s. Under `O=C(NCCCO)C(=O)Nc1ccc(Cl)c(C(F)(F)F)c1` stands 795 s; under `O=C(Nc1ccc(Cl)cc1)Nc1cccc2nsnc12`, 1100 s; under `Cc1nnc2n1CCC(NS(=O)(=O)c1ccccc1F)CC2` (stereo not drawn), 590 s. As for `CC1=NS(=O)(=O)N(Cc2ccccc2)C=C1C(=O)OCc1noc(-c2cccc(F)c2)n1`, the RP-LC retention time was determined as 1130 s. Under `CCCCn1c(=O)c2ccccc2n(Cc2nc(-c3ccc(F)c(Br)c3)no2)c1=O` stands 1320 s. `CCOc1cccc(-c2noc(Cn3nc(-c4ccc(C)cc4)ccc3=O)n2)c1` yielded an RP-LC retention time of 1170 s. Under `CCOCCOC(=O)C1=C(C)NC2=C(C(=O)CC(C)(C)C2)C1c1ccccc1OC` (stereo not drawn) stands 839 s; under `Cn1cc(CCNS(=O)(=O)c2cccc3nsnc23)c2cccnc21`, 671 s. Under `O=C(NC1CCCCC1)c1cccc2c1CCN2C(=O)C1CC1` stands 832 s; under `O=C(Nc1ccc(F)cc1F)c1ccc2ncsc2c1`, 713 s. Under `CCOC(=O)c1nc(Nc2ccc(C(=O)OC)cc2)c2ccccc2n1` stands 841 s; under `CNCc1cc(-c2ccccc2F)n(S(=O)(=O)c2cccnc2)c1`, 682 s. In turn, `Cc1ccnc(N2CCCC(C(=O)Nc3cc(Cl)ccc3C)C2)n1` (stereo not drawn) returned an RP-LC retention time of 846 s. `COc1cccc(C(=O)N2CCC(C(=O)NCc3csc(-c4cccs4)n3)CC2)c1` displayed an RP-LC retention time of 769 s.

`CCOc1ccccc1NC(=O)CC1Sc2ccccc2NC1=O` (stereo not drawn): the RP-LC retention time was determined as 829 s. Under `CCCN1C(=O)COc2ccc(-c3noc(Cc4cc(OC)cc(OC)c4)n3)cc21` stands 1080 s. `Cc1ccccc1-c1nnc(CSc2nnc(NC(=O)CCc3ccccc3)s2)o1` returned an RP-LC retention time of 977 s. Under `Cc1ccc(S(=O)(=O)N2CCC(C)CC2)cc1-c1nnc(-c2ccccc2)o1` stands 1180 s. Under `CS(=O)(=O)N1CCN(C(=O)c2coc(NC(=O)c3ccccc3)n2)CC1` stands 608 s; under `Cc1cc(C)n2nc(SCC(=O)Nc3cccc(C(F)(F)F)c3)nc2n1`, 827 s. Under `CCN(CCNC(=O)CCc1cc2cc(C)ccc2[nH]c1=O)Cc1ccccc1` stands 648 s. As for `CCCn1cc(CCNC(=O)Nc2cc(C)ccc2C)c2cccnc21`, the RP-LC retention time stood at 808 s.

In the case of `Cc1nnc(SCC(=O)c2ccc3c(c2)OCCO3)s1`, the RP-LC retention time was found to be 746 s.

Compound `COc1ccc(CSc2ncn[nH]2)cc1` displayed an RP-LC retention time of 630 s. Under `COc1cc(NS(=O)(=O)c2ccc3c(c2)-c2oncc2CO3)cc(OC)c1` stands 884 s; under `C[C@@H]1CCO[C@H]2Cn3cc(C(=O)NCc4ccc(F)cc4F)c(=O)c(O)c3C(=O)N12`, 808 s; under `COc1cccc(CCC(=O)Nc2cnn(-c3ncc(N4CCCCC4)cn3)c2)c1`, 890 s. Under `COc1ccc(NC(=O)N2CCCC2c2nc(-c3ccccc3OC)no2)cc1F` (stereo not drawn) stands 834 s.

The compound `Cc1nc2ncnn2c(N2CCOCC2)c1C` registered an RP-LC retention time of 625 s.

`Cc1ccc(N2CC(C(=O)Nc3cc(-c4ccco4)no3)CC2=O)cc1` (stereo not drawn) returned an RP-LC retention time of 821 s. Under `Cc1ccc(CNc2c(-c3ccc(F)c(F)c3)nc3ncccn23)cc1` stands 890 s; under `O=C(Cc1ccc(NS(=O)(=O)c2ccc3c(c2)OCCO3)cc1)NC1CC1`, 678 s; under `COc1ccc(CCN2CC(C(=O)N3CCN(C(C)C)CC3)CC2=O)cc1OC` (stereo not drawn), 553 s. Under `CCN1C(=O)c2cccnc2Sc2cc(NC(=O)c3cccc(F)c3)ccc21` stands 844 s; under `CCOc1cc(C2c3c(oc4ccccc4c3=O)C(=O)N2CCCN(C)C)ccc1O` (stereo not drawn), 989 s. Under `O=C(NCCc1ccccn1)C1(CCO)CCN(c2ncccn2)C1` (stereo not drawn) stands 526 s; under `COC(=O)c1cn(CC(=O)Nc2ccc(Br)cc2F)c2nc(C)ccc2c1=O`, 775 s; under `CCOc1cc(=O)n2c(c1C(=O)Nc1cc(C)cc(C)c1)CCCC2`, 791 s. On to `Cc1ccc(C2Cn3nnc(-c4nc(-c5ccc(F)cc5)no4)c3CO2)c(C)c1` (stereo not drawn), for which the RP-LC retention time came to 1300 s. Under `COc1ccc2nc3oc(C(=O)NCCN4CCCCC4C)cc3cc2c1` (stereo not drawn) stands 633 s; under `CCn1nc(C)c(CCNC(=O)C(C)n2c3ccccc3c3cnn(C)c(=O)c32)c1C` (stereo not drawn), 656 s. Under `Cc1cc2ncn(CC3CCN(C(=O)c4ccsc4)CC3)c2cc1C` stands 583 s; under `Nc1o[nH]c(=O)c1C1CCCCC1`, 680 s. `Cc1cc(C(=O)NC2CCCCCC2)nn1C` came in with an RP-LC retention time of 799 s.

As to `CCOC(=O)c1c(NCc2ccc(F)cc2)c2ccc(Cl)cc2[nH]c1=O`, the RP-LC retention time worked out at 858 s.

The compound `O=C(C1CCCO1)N1CCC(OCc2nc(-c3ccncc3)no2)CC1` (stereo not drawn) returned an RP-LC retention time of 585 s. Under `Cc1cc(C)cc(N2CCC(NC(=O)CC(C)C)C2=O)c1` (stereo not drawn) stands 814 s. Under `O=C(NCC1CCOCC1)Nc1ccc(F)cc1` stands 670 s. With `Cc1cccc(Cl)c1NC(=O)CSc1ccc(N2CCCC(C(=O)NC3CC3)C2)nn1` (stereo not drawn), the RP-LC retention time was found to be 698 s. Under `Cc1oc2c(c1C(=O)Nc1ccc(Br)cc1)C1=NCCN1C=N2` stands 644 s; under `CSc1ncccc1C(=O)NCc1nn(C(C)C)c2ccccc12`, 830 s; under `CCOC(=O)c1c(NCCC(C)C)c2cccc(Cl)c2[nH]c1=O`, 890 s. Under `CCOc1nc2ccccc2nc1N1CCCC(C(=O)NCC2CCCO2)C1` (stereo not drawn) stands 934 s; under `Cc1ccccc1-c1noc(CN2N=NC3C(=O)N(c4ccc5c(c4)CCC5)C(=O)C32)n1` (stereo not drawn), 1120 s. `COC(=O)c1cccc(C(=O)N2CCc3ccccc3C2)n1` showed an RP-LC retention time of 769 s. Under `O=C(Nc1nnc(-c2ccsc2)o1)c1ccc2nsnc2c1` stands 698 s.

`COc1ccc(NS(=O)(=O)c2ccc(-c3c(C)noc3C)cc2)cc1Cl` returned an RP-LC retention time of 945 s. Under `CCOC(=O)C(C)Oc1ccc2c(=O)c(Oc3ccccc3OCC)coc2c1` (stereo not drawn) stands 971 s. Under `O=C(CCc1c(-c2ccccc2)nc2ccccn12)Nc1ccc(Cl)cc1F` stands 715 s; under `O=C(CN1CCN(Cc2ccccc2)C1=O)NC1CC1`, 641 s. Consider `CC(C)CC(C)NC(=O)c1ccc(CN2C(=O)C3CCCN3C(=O)c3ccccc32)cc1` (stereo not drawn), for which the RP-LC retention time amounted to 836 s.
